{
  "source": "paper PMC10145360",
  "about": "“Antiplatelet Aggregation Properties of Cirsilineol: A Novel Inhibitor of Blood Coagulation Factor Xa” (Pharmaceuticals, 2023)",
  "key": {"HUVECs": {"tested_on": "HUVECs", "assay": "MTT cell viability assay", "format": "cell-based, human", "settings": "CSL 5–50 μM", "procedure": "(§1) First, the potential cytotoxicity of […] on HUVECs was assessed using the 3-(4,5-dimethylthiazol-2-yl)-2,5-diphenyltetrazolium bromide (MTT) assay. […] The activated partial thromboplastin time (aPTT) and prothrombin time (PT), two coagulation parameters altered by CSL in vitro, were assessed first. We used the direct FXa inhibitor rivaroxaban as a positive control for our experiments. […] In the aPTT experiments, rivaroxaban at 8.38 μM and CSL at 7.23 μM, respectively, doubled the clotting time. Each mouse group (n = 5) received intravenous injections of CSL for 4 consecutive days to validate the in vitro results in an ex vivo experiment. […] In the ex vivo aPTT assays, treatment with CSL at 0.25 mg/kg and rivaroxaban at 0.29 mg/kg, respectively, doubled the clotting time. The average blood volume was determined to be 2 mL based on an estimated circulating blood volume for mice of 72 mL/kg and an average weight of 27 g for each animal used in this investigation. As a result, the estimated concentration of CSL in the peripheral blood after each injection ([…]) was 2.5, 5, 10, or 20 μM, respectively.\nA 3-(4,5-dimethylthiazol-2-yl)-2,5-diphenyltetrazoliumbromide (MTT) assay was used to measure cell viability. […] The amount of formazan salt formed was measured spectrophotometrically at 540 nm."}, "[1]": {"tested_on": "platelet-poor plasma (PPP)", "assay": "Prothrombin time (PT) after administration to mice", "format": "in vivo, mouse", "settings": "administered to mice; data not shown", "procedure": "as §1\nPlasma was taken by centrifuging blood (2000× g for 10 min) at room temperature following dimethyl sulfoxide (DMSO) or CSL administration for 1 h to assess PT and aPTT using a thrombotimer (Behnk Elektronik, Norderstedt, Germany). […] Next, the clotting time was measured."}, "[2]": {"tested_on": "FeCl3-induced carotid artery thrombosis", "assay": "FeCl3-induced carotid artery thrombosis model", "format": "in vivo, mouse", "settings": "mice", "procedure": "A mouse model of FeCl3-induced thrombosis was created and used. Male C57BL/6 mice were starved for the entire night before receiving intravenous injections of the relevant drug in 0.2 mL of DMSO and were allowed to sleep. The carotid artery of the animal was exposed. The adventitial surface was covered with a cotton thread (200 μm in diameter) soaked in FeCl3 solution (0.25 M) for 5 min. The wound was flushed with saline solution once the thread had been removed. […] We measured the size and rate of thrombus formation, and we graded our results as follows: no thrombus or small thrombus (75–50 μm), medium thrombus (150–100 μm), massive thrombus (300–200 μm), and more than three thrombi. It was also noted how long it took for an extensive thrombus to obstruct the carotid artery following endothelial damage caused by FeCl3."}, "[3]": {"tested_on": "collagen and epinephrine-induced pulmonary thrombosis", "assay": "Acute pulmonary thrombosis induced by collagen and epinephrine", "format": "in vivo, mouse", "settings": "for Mortality %: then collagen + epinephrine, mice; for Scored thrombus formation (Thrombi), lung: graded as thrombi per 25 mm^2 lung field", "procedure": "Mice were separated into several groups after being fasted overnight (10 animals each). CSL was dissolved in DMSO and given intravenously to each mouse. After 1 h, the animals received an injection of collagen and epinephrine mixture (500 μg/kg each) to induce acute thrombosis. Each mouse was closely observed for 15 min to see if it had recovered from the acute thrombosis challenge, had been paralyzed, or had passed away. H&E-stained lung tissue slices from five mice were randomly selected for the histologic investigation to determine the extent of pulmonary thrombus development. The number of arteries greater than 20 μm in diameter with any detectable thrombus was counted in each of the five view fields randomly selected from the left lobe in each section (one section per mouse). Twenty-five fields for each group were compared as a result. A total of 60–80 vessels in each segment were imaged using the system (Leica, Germany). The results were graded as the number of thrombi per 25 mm^2 lung field as previously described."}, "Plasmin": {"target": "T1, Plasmin (Homo sapiens, UniProt P00747)", "T1 construct": "S-2251 for plasmin; purchased Haematologic Technologies (Essex Junction, VT, USA)", "T1 sequence (P00747 581-810 limits assumed)": "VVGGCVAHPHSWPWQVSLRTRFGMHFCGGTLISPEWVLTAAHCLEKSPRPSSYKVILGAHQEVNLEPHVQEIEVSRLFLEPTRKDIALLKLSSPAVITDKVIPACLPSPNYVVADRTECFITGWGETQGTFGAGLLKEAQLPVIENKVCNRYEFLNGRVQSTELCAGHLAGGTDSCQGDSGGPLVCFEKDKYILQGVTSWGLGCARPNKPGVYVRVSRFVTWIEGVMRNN", "T1 sequence (P00747 97-580 partner limits assumed)": "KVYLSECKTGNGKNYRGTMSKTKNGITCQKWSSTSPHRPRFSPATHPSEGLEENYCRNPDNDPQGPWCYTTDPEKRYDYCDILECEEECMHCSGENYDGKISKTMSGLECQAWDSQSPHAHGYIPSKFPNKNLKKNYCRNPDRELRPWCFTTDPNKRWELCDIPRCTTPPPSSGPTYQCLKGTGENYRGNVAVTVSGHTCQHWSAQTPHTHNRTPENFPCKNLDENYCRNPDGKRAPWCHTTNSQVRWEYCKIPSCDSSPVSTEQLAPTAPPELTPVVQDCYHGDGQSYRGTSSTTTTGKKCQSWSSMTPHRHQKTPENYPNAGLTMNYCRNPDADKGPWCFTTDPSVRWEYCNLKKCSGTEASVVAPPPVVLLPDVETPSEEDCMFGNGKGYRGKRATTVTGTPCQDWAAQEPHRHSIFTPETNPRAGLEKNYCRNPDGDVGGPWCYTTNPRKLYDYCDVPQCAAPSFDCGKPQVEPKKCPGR", "assay": "Inhibitory constant, chromogenic substrate assay", "format": "biochemical", "procedure": "(§2) Ki values were calculated based on chromogenic substrate experiments. CSL was employed in each assay at a minimum of seven concentrations in duplicate to obtain an inhibition curve. A total of 50 μL of substrate was combined with 25 μL of each chemical solution, inhibitor solution, or blank buffer. Before the plate was allocated into the Labsystems IEMS microtiter plate reader (Cergy Pontoise, France), 25 μL of the enzyme solution was mixed. The plate was allowed for 1 h at 37 °C before analysis. We continuously observed the formation of p-nitroaniline produced when the substrate was hydrolyzed using spectrophotometry at 405 nm. The maximum initial reaction rates were computed as the millioptical density per minute. A Dixon plot of 1/Vmax versus inhibitor concentration was used to fit the curve and determine the Ki values."}, "Protein Ca": {"target": "T2, Protein Ca (Homo sapiens, UniProt P04070)", "T2 construct": "purchased Haematologic Technologies (Essex Junction, VT, USA)", "T2 sequence (P04070 212-450 limits assumed)": "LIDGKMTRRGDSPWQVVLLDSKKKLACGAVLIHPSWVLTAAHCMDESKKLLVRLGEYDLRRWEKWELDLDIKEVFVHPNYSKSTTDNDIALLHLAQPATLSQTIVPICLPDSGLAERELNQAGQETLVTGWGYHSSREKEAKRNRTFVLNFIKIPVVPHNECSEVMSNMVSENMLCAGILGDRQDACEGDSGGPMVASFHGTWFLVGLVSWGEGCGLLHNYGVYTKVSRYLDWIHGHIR", "T2 sequence (P04070 43-197 partner limits assumed)": "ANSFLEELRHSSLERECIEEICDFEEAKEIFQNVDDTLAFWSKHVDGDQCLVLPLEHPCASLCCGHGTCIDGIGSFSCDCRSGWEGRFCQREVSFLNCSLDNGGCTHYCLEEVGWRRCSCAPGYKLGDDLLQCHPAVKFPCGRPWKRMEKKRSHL", "assay": "Inhibitory constant, chromogenic substrate assay", "format": "biochemical", "procedure": "as §2"}, "tPA": {"target": "T3, tPA (Homo sapiens, UniProt P00750)", "T3 construct": "purchased Haematologic Technologies (Essex Junction, VT, USA)", "T3 sequence (P00750 36-562)": "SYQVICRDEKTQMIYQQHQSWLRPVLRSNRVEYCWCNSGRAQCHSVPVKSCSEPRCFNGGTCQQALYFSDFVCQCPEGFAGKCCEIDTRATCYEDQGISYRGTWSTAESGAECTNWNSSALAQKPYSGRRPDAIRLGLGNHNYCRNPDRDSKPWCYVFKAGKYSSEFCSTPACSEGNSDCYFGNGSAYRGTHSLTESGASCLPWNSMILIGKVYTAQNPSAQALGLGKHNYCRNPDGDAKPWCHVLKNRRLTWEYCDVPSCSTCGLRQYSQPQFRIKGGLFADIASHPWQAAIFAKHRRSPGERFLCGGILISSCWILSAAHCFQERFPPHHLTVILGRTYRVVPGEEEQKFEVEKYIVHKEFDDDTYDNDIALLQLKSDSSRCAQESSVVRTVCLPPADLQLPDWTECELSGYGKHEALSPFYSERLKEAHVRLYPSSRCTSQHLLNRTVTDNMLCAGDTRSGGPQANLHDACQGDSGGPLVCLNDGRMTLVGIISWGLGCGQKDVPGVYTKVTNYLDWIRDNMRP", "assay": "Inhibitory constant, chromogenic substrate assay", "format": "biochemical", "procedure": "as §2"}, "α-Thrombin": {"target": "T4, α-Thrombin (Homo sapiens, UniProt P00734)", "T4 construct": "α-Thrombin; purchased Haematologic Technologies (Essex Junction, VT, USA)", "assay": "Inhibitory constant, chromogenic substrate assay", "format": "biochemical", "procedure": "as §2"}, "Trypsin": {"target": "Trypsin", "assay": "Inhibitory constant, chromogenic substrate assay", "format": "biochemical, human", "procedure": "as §2"}, "[4]": {"tested_on": "human umbilical vein endothelial cells (HUVECs)", "assay": "NO and ET-1 production, ELISA", "format": "cell-based", "settings": "ADP or U46619 treated"}},
  "note": "Marks after values point to notes of the source that are not given here.",
  "data": [
    {"smiles": "COc1cc(-c2cc(=O)c3c(O)c(OC)c(OC)cc3o2)ccc1O", "note": "[CSL, 4,5-dihydroxy-3,6,7-trimethoxyflavone]", "values": [
      {"measurement": "cell viability (MTT)", "setting": "HUVECs", "value": "no change in cell viability"},
      {"measurement": "PT", "setting": "[1]", "value": "did not change"},
      {"measurement": "Scored thrombus formation", "setting": "[2]; 0.13 mg/kg intravenous", "value": "3.7 ± 0.2"},
      {"measurement": "Time to Large Thrombus Formation", "setting": "[2]; 0.13 mg/kg intravenous", "value": "13.1 ± 1.1", "unit": "min"},
      {"measurement": "Scored thrombus formation", "setting": "[2]; 0.26 mg/kg intravenous", "value": "2.7 ± 0.1"},
      {"measurement": "Time to Large Thrombus Formation", "setting": "[2]; 0.26 mg/kg intravenous", "value": "27.2 ± 2.1", "unit": "min"},
      {"measurement": "Scored thrombus formation", "setting": "[2]; 0.51 mg/kg intravenous", "value": "1.8 ± 0.1"},
      {"measurement": "Time to Large Thrombus Formation", "setting": "[2]; 0.51 mg/kg intravenous", "value": "51.4 ± 3.1", "unit": "min"},
      {"measurement": "Mortality %", "setting": "[3]; 0.13 mg/kg intravenous", "value": "85 ^# %"},
      {"measurement": "Scored thrombus formation (Thrombi), lung", "setting": "[3]; 0.13 mg/kg intravenous", "value": "3.5 ± 0.1"},
      {"measurement": "Mortality %", "setting": "[3]; 0.26 mg/kg intravenous", "value": "80 ^# %"},
      {"measurement": "Scored thrombus formation (Thrombi), lung", "setting": "[3]; 0.26 mg/kg intravenous", "value": "2.5 ± 0.1"},
      {"measurement": "Mortality %", "setting": "[3]; 0.51 mg/kg intravenous", "value": "60 ^# %"},
      {"measurement": "Scored thrombus formation (Thrombi), lung", "setting": "[3]; 0.51 mg/kg intravenous", "value": "1.8 ± 0.2"},
      {"measurement": "Ki", "setting": "Plasmin", "value": "> 300", "unit": "µM"},
      {"measurement": "Ratio = Ki enzyme/Ki Factor Xa", "setting": "Plasmin", "value": ">100"},
      {"measurement": "Ki", "setting": "Protein Ca", "value": "> 300", "unit": "µM"},
      {"measurement": "Ratio = Ki enzyme/Ki Factor Xa", "setting": "Protein Ca", "value": ">100"},
      {"measurement": "Ki", "setting": "tPA", "value": "> 300", "unit": "µM"},
      {"measurement": "Ratio = Ki enzyme/Ki Factor Xa", "setting": "tPA", "value": ">100"},
      {"measurement": "Ki", "setting": "α-Thrombin", "value": "> 300", "unit": "µM"},
      {"measurement": "Ratio = Ki enzyme/Ki Factor Xa", "setting": "α-Thrombin", "value": ">100"},
      {"measurement": "Ki", "setting": "Trypsin", "value": "> 300", "unit": "µM"},
      {"measurement": "Ratio = Ki enzyme/Ki Factor Xa", "setting": "Trypsin", "value": ">100"},
      {"measurement": "NO secretion", "setting": "[4]", "value": "returned the decreased NO secretion caused by ADP or U46619 to their baseline levels"},
      {"measurement": "production of ET-1", "setting": "[4]", "value": "returned the increased production of ET-1"}
    ]}
  ]
}
